From ChEMBL document CHEMBL1128795, “N-(Quinuclidin-3-yl)-2-(1-methyl-1H-indol-3-yl)-2-oxo-acetamide: a high affinity 5-HT3 receptor partial agonist” (Bioorg Med Chem Lett, 1995)

Assays:
[1] = biological target: 5-hydroxytryptamine receptor 2A (Homo sapiens, UniProt P28223); experiment: Binding affinity against 5-Hydroxytryptamine 2A receptor
[2] = biological target: 5-hydroxytryptamine receptor 1D (Homo sapiens, UniProt P28221); experiment: Binding affinity against 5-Hydroxytryptamine 1D receptor
5-hydroxytryptamine receptor 1D, sequence (P28221 whole entry): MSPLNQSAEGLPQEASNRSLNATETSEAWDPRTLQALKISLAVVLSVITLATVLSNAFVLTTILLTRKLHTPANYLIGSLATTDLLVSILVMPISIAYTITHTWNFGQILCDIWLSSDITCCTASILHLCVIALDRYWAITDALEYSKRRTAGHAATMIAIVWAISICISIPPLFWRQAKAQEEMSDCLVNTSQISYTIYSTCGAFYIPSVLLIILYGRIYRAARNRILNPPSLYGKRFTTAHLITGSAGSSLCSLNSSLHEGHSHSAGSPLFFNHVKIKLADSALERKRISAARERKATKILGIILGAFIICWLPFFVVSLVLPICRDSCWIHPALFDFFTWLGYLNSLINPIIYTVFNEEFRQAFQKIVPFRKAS

[3] = biological target: T1, Alpha-1B adrenergic receptor (Homo sapiens, UniProt P35368); experiment: Binding affinity against Adrenogenic Alpha-1B receptor
T1 sequence (P35368 whole entry): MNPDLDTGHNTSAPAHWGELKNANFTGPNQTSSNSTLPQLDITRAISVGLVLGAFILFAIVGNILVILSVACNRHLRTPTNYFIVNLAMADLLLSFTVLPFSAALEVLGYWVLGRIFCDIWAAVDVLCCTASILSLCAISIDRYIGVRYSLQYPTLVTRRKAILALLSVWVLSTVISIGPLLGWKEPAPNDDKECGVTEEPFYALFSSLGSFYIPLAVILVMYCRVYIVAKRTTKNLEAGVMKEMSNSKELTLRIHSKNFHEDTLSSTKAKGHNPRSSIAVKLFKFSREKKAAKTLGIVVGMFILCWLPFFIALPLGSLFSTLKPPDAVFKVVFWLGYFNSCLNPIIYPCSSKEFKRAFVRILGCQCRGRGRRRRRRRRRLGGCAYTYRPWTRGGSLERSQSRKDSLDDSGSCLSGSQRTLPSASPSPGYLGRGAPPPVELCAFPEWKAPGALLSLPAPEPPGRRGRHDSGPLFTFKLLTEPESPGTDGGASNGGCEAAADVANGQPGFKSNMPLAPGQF

[4] = biological target: T2, Alpha-2B adrenergic receptor (Homo sapiens, UniProt P18089); experiment: Binding affinity against Alpha-2B adrenergic receptor
T2 sequence (P18089 whole entry): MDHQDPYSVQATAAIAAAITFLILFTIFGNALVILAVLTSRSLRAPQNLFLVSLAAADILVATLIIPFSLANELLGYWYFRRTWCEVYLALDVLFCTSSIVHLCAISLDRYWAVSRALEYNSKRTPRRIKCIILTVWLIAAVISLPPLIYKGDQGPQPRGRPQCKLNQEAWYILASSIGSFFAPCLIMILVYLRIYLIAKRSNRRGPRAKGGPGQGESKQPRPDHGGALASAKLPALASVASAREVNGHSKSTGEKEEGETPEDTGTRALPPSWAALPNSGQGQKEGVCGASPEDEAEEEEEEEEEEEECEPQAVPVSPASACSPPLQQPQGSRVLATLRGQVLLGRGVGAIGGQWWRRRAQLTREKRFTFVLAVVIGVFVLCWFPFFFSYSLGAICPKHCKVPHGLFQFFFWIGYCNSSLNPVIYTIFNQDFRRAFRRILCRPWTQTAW

[5] = biological target: T3, Alpha-1A adrenergic receptor (Homo sapiens, UniProt P35348); experiment: Binding affinity against Alpha-1A adrenergic receptor
T3 sequence (P35348 whole entry): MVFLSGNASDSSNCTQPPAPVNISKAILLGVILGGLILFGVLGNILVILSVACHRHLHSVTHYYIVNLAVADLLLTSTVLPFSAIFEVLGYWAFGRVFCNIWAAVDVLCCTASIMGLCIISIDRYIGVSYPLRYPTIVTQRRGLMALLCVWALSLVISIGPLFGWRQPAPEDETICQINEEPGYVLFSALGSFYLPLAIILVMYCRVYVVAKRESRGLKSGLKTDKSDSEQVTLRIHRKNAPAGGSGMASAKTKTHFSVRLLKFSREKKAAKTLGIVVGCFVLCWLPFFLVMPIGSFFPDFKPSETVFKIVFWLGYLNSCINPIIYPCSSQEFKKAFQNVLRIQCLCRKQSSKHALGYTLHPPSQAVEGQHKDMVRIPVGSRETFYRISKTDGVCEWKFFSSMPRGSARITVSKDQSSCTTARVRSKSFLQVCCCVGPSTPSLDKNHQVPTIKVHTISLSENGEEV

[6] = biological target: Beta-2 adrenergic receptor (Homo sapiens, UniProt P07550); experiment: Binding affinity against Beta-2 adrenergic receptor
Beta-2 adrenergic receptor, sequence (P07550 whole entry): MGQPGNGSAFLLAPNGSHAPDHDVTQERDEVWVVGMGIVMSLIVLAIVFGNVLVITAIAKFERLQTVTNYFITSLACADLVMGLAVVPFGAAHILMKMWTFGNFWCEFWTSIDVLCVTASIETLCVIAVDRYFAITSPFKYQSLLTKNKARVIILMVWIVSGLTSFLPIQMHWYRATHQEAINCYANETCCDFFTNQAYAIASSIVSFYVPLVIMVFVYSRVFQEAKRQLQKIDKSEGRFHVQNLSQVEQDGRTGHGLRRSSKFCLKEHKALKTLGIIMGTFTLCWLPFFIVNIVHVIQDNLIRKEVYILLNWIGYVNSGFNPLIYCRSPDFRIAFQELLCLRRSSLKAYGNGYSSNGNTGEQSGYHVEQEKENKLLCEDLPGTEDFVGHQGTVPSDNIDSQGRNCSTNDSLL

[7] = biological target: D(1A) dopamine receptor (Homo sapiens, UniProt P21728); experiment: Binding affinity against Dopamine D1 receptor
D(1A) dopamine receptor, sequence (P21728 whole entry): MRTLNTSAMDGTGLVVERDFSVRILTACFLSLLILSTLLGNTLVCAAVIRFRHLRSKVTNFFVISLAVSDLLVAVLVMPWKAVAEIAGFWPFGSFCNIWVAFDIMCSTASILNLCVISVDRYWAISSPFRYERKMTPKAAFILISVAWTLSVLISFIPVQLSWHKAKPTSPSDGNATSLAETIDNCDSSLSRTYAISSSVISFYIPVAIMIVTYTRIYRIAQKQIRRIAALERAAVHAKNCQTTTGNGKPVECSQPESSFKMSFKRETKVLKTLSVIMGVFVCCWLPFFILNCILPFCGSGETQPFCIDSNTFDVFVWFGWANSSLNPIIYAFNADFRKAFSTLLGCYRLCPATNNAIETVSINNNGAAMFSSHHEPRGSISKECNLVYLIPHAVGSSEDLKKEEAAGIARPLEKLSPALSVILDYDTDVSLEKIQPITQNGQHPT

[8] = biological target: Muscarinic acetylcholine receptor M3 (Homo sapiens, UniProt P20309); experiment: Binding affinity against Muscarinic M3 receptor
Muscarinic acetylcholine receptor M3, sequence (P20309 whole entry): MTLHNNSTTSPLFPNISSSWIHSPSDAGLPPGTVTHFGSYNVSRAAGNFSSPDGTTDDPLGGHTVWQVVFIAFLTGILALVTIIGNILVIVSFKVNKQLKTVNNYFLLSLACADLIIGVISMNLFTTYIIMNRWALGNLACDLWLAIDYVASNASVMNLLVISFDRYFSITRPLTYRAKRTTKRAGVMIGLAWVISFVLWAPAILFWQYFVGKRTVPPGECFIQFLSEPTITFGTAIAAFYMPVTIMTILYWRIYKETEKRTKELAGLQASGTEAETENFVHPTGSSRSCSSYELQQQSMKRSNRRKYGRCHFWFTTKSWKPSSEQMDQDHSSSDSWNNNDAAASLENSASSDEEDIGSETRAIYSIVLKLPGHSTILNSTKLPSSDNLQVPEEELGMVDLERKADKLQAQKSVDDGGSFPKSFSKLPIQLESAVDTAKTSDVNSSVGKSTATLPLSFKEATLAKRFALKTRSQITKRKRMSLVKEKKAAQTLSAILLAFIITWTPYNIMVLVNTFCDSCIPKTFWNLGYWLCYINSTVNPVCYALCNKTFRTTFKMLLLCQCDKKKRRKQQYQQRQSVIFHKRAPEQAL

[9] = biological target: T4, Muscarinic acetylcholine receptor M2 (Homo sapiens, UniProt P08172); experiment: Binding affinity against Muscarinic M2 receptor
T4 sequence (P08172 whole entry): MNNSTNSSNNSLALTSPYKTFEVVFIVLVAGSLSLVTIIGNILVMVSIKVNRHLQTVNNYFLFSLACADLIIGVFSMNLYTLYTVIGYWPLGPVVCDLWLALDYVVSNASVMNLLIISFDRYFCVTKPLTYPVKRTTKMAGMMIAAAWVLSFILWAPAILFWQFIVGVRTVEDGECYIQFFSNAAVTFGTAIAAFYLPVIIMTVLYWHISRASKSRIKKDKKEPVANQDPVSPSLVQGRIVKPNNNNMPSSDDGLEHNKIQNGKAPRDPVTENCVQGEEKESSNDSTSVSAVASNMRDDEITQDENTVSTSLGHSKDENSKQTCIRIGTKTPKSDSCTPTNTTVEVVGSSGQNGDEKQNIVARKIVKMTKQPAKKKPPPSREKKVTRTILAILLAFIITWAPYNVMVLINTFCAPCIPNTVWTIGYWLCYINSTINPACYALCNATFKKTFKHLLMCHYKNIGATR

[10] = biological target: T5, Muscarinic acetylcholine receptor M1 (Homo sapiens, UniProt P11229); experiment: Binding affinity against Muscarinic M1 receptor
T5 sequence (P11229 whole entry): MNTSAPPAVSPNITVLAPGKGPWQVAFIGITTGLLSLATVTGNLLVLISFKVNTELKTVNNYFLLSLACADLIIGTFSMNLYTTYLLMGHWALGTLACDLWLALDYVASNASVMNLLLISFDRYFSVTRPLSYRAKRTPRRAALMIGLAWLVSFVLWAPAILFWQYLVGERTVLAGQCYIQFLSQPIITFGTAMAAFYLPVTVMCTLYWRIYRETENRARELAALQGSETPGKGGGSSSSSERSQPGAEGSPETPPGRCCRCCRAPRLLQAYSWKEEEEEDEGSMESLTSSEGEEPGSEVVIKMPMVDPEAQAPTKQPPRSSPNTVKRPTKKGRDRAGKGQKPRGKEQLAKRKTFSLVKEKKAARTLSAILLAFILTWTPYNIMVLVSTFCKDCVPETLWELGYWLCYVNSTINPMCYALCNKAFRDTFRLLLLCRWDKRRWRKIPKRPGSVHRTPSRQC

[11] = biological target: Serotonin 3 (5-HT3) receptor (Rattus norvegicus) (UniProt P35563+Q9JJ16); experiment: Agonist activity against 2-methyl-5-HT induced bradycardia (von Bezold-Jarisch (B-J) reflex) in anesthetized rats; format: functional
[12] = organism: Rattus norvegicus; experiment: Tested for effective concentration against 5-HT mediated depolarization of isolated rat vagus nerve; format: functional
[13] = biological target: D(2) dopamine receptor (Homo sapiens, UniProt P14416); experiment: Binding affinity against Dopamine D2 receptor
D(2) dopamine receptor, sequence (P14416 whole entry): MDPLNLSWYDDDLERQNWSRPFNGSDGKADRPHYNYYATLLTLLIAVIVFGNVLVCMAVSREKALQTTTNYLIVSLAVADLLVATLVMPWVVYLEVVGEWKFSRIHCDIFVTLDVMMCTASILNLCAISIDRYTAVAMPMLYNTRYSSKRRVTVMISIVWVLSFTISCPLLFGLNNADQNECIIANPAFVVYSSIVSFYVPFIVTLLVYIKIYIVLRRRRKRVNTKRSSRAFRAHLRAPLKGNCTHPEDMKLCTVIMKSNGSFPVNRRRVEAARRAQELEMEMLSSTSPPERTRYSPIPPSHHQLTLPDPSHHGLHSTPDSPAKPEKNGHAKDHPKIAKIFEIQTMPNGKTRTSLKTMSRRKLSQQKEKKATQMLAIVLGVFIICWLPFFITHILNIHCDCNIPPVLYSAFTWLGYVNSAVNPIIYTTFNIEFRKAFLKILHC

5-hydroxytryptamine receptor 2A, sequence (P28223 whole entry): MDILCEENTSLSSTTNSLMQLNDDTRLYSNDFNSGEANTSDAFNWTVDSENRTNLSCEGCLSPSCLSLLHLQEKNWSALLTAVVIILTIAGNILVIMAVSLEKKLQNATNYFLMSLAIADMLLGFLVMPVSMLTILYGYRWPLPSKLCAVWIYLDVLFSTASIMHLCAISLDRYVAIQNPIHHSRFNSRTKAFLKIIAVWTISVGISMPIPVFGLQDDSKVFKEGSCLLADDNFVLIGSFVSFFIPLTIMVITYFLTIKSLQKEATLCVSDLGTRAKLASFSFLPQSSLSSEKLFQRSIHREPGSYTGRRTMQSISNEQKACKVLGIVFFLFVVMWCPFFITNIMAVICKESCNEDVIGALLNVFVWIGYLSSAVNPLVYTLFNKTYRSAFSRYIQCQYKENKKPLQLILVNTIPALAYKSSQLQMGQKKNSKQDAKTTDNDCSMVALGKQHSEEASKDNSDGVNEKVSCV

SMILES | Ki [1] | Ki [2] | Ki [3] | Ki [4] | Ki [5] | Ki [6] | Ki [7] | Ki [8] | Ki [9] | Ki [10] | ED50 [11] | EC50 [12] | Ki [13]
Cn1cc(C(=O)C(=O)N[C@@H]2CN3CCC2CC3)c2ccccc21 | 25.1 µM | > 100 µM | 15.8 µM | 25.1 µM | 25.1 µM | > 100 µM | > 100 µM | 31.6 µM | 50.1 µM | 25.1 µM | 8.5 µg/kg | 2.14 µM | > 100 µM
Cn1cc(C(=O)C(=O)N[C@H]2CN3CCC2CC3)c2ccccc21 | 12.6 µM | 39.8 µM | > 10 µM | 3.16 µM | > 10 µM | > 10 µM | > 100 µM | 50.1 µM | 50.1 µM | 10 µM | 0.6 µg/kg | 0.0355 µM | > 100 µM
